Where “and” joins values, the source holds several entries; their conditions need not be identical. Identical values can stand only once. Inconclusive results and toxic doses are left out. Cut-off read from the data, not from the text of the source: active = T/C of 150% or more; inactive = T/C below 125%.
System: L1210 leukemia ip in BDF1 mice, survival T/C
Test: NCI In Vivo Anticancer Drug Screen. Data for tumor model L1210 Leukemia (intraperitoneal) in B6D2F1 (BDF1) mice
Details: endpoint: mean survival time, higher = longer survival
How it was run: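 Tumor was transplanted into mice, which were then dosed with test compound or vehicle alone. Survival was recorded for each group, and the treated figure was expressed relative to the control figure.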

[1] = dose: 100.0 mg/kg/injection, schedule: Q01DX001 (ip), vehicle: saline
[2] = dose: 200.0 mg/kg/injection, schedule: Q01DX001 (ip), vehicle: saline
[3] = dose: 400.0 mg/kg/injection, schedule: Q01DX001 (ip), vehicle: saline
[4] = dose: 100.0 mg/kg/injection, schedule: Q01DX009 (ip), vehicle: Klucel (hydroxypropylcellulose) (HPC)
[5] = dose: 200.0 mg/kg/injection, schedule: Q01DX009 (ip), vehicle: Klucel (hydroxypropylcellulose) (HPC)
[6] = dose: 100.0 mg/kg/injection, schedule: Q01DX001 (ip), vehicle: saline with Tween-80
[7] = dose: 100.0 mg/kg/injection, schedule: Q01DX009 (ip), vehicle: saline with Tween-80
[8] = dose: 100.0 mg/kg/injection, schedule: Q04DX003 (ip), vehicle: saline with Tween-80
[9] = dose: 200.0 mg/kg/injection, schedule: Q01DX001 (ip), vehicle: saline with Tween-80
[10] = dose: 200.0 mg/kg/injection, schedule: Q01DX009 (ip), vehicle: saline with Tween-80
[11] = dose: 200.0 mg/kg/injection, schedule: Q04DX003 (ip), vehicle: saline with Tween-80
[12] = dose: 400.0 mg/kg/injection, schedule: Q01DX009 (ip), vehicle: saline with Tween-80
[13] = dose: 100.0 mg/kg/injection, schedule: Q04DX003 (ip), vehicle: Klucel (hydroxypropylcellulose) (HPC)
[14] = dose: 200.0 mg/kg/injection, schedule: Q04DX003 (ip), vehicle: Klucel (hydroxypropylcellulose) (HPC)
[15] = dose: 400.0 mg/kg/injection, schedule: Q01DX009 (ip), vehicle: Klucel (hydroxypropylcellulose) (HPC)
[16] = dose: 400.0 mg/kg/injection, schedule: Q04DX003 (ip), vehicle: Klucel (hydroxypropylcellulose) (HPC)

Measured: T/C

Cc1cc(CCNC=O)c(C)c2c1sc1ccccc12
inactive: dose: 50.0 mg/kg/injection, schedule: Q01DX001 (ip), vehicle: saline 97 % of control | [1] 97 % of control | [2] 92 % of control | [3] 94 % of control

COc1ccc(C=C2C(=O)NC(=O)NC2=O)cc1OC
inactive: dose: 50.0 mg/kg/injection, schedule: Q01DX009 (ip), vehicle: Klucel (hydroxypropylcellulose) (HPC) 92 % of control | [4] 96 % of control | [5] 96 % of control

CNC(=O)n1ncc2ccc([N+](=O)[O-])cc21
inactive: [1] 107 % of control | [2] 107 % of control | [3] 102 % of control

O=C(Nc1ncccn1)c1ccc(Cl)cc1Cl
inactive: dose: 50.0 mg/kg/injection, schedule: Q04DX003 (ip), vehicle: saline with Tween-80 93 % of control | [6] 103 % of control | [7] 102 % of control | dose: 100.0 mg/kg/injection, schedule: Q04DX002 (ip), vehicle: saline with Tween-80 93 % of control and 91 % of control | [8] 94 % of control and 100 % of control | [9] 96 % of control | [10] 102 % of control | dose: 200.0 mg/kg/injection, schedule: Q04DX002 (ip), vehicle: saline with Tween-80 104 % of control | [11] 91 % of control | dose: 400.0 mg/kg/injection, schedule: Q01DX001 (ip), vehicle: saline with Tween-80 96 % of control | [12] 100 % of control | dose: 400.0 mg/kg/injection, schedule: Q04DX002 (ip), vehicle: saline with Tween-80 105 % of control and 107 % of control | dose: 400.0 mg/kg/injection, schedule: Q04DX003 (ip), vehicle: saline with Tween-80 103 % of control and 92 % of control

Cc1ccc(NC(=O)c2ccc(Cl)cc2Cl)cc1Cl
inactive: [4] 96 % of control | [13] 104 % of control | [5] 91 % of control | [14] 97 % of control | [15] 94 % of control | [16] 95 % of control

O=C(CC(c1ccccc1)C(C(CC(=O)c1ccccc1)c1ccccc1)[N+](=O)[O-])c1ccccc1 (stereo not given)
inactive: dose: 100.0 mg/kg/injection, schedule: Q01DX001 (ip), vehicle: carboxymethylcellulose (CMC) 92 % of control | [13] 87 % of control | dose: 200.0 mg/kg/injection, schedule: Q01DX001 (ip), vehicle: carboxymethylcellulose (CMC) 95 % of control | [14] 89 % of control | dose: 400.0 mg/kg/injection, schedule: Q01DX001 (ip), vehicle: carboxymethylcellulose (CMC) 92 % of control | [16] 86 % of control

CCCCNC(=O)NC(C(=O)OCC)C(=O)OCC
inactive: [4] 97 % of control | [13] 100 % of control | [5] 102 % of control | [14] 100 % of control | [15] 96 % of control | [16] 102 % of control

Cc1ccc(S(=O)(=O)N(C)c2ccc(C(=O)O)cc2F)cc1
inactive: dose: 75.0 mg/kg/injection, schedule: Q01DX001 (ip), vehicle: saline 105 % of control | dose: 75.0 mg/kg/injection, schedule: Q04DX003 (ip), vehicle: saline 100 % of control | dose: 150.0 mg/kg/injection, schedule: Q01DX001 (ip), vehicle: saline 90 % of control | dose: 150.0 mg/kg/injection, schedule: Q04DX003 (ip), vehicle: saline 97 % of control | dose: 300.0 mg/kg/injection, schedule: Q01DX001 (ip), vehicle: saline 98 % of control | dose: 300.0 mg/kg/injection, schedule: Q04DX003 (ip), vehicle: saline 97 % of control

Clc1ccnc2[nH]ncc12
inactive: dose: 60.0 mg/kg/injection, schedule: Q01DX001 (ip), vehicle: other 97 % of control | dose: 120.0 mg/kg/injection, schedule: Q01DX001 (ip), vehicle: other 105 % of control

Nc1ccc2c(c1)OCO2
inactive: dose: 90.0 mg/kg/injection, schedule: Q04DX003 (sc), vehicle: olive oil, sesame oil, peanut oil 106 % of control | dose: 100.0 mg/kg/injection, schedule: Q01DX009 (sc), vehicle: olive oil, sesame oil, peanut oil 107 % of control | dose: 100.0 mg/kg/injection, schedule: Q04DX003 (sc), vehicle: olive oil, sesame oil, peanut oil 101 % of control | dose: 133.0 mg/kg/injection, schedule: Q04DX003 (sc), vehicle: olive oil, sesame oil, peanut oil 119 % of control | dose: 200.0 mg/kg/injection, schedule: Q01DX009 (sc), vehicle: olive oil, sesame oil, peanut oil 112 % of control | dose: 400.0 mg/kg/injection, schedule: Q04DX003 (sc), vehicle: olive oil, sesame oil, peanut oil 108 % of control

CCCCCCCCCCCCOc1ccc(C=O)cc1OC
inactive: [13] 95 % of control | [14] 98 % of control | [16] 106 % of control

O=C(O)C12CCC(CO)(CC1)CC2
inactive: dose: 50.0 mg/kg/injection, schedule: Q01DX001 (ip), vehicle: saline with Tween-80 103 % of control | [6] 100 % of control | [9] 92 % of control

O=[N+]([O-])c1ccccc1N1CCCCC1
inactive: [13] 97 % of control | [14] 89 % of control | [16] 109 % of control

O=C(Nc1ccc(Cl)cc1Cl)c1ccc2c(c1)C(=O)OC2=O
inactive: [7] 90 % of control | [10] 92 % of control | [12] 92 % of control

O=C(NCCCl)NCC1CCCCO1 (stereo not given)
inactive: dose: 100.0 mg/kg/injection, schedule: Q01DX001 (ip), vehicle: Klucel (hydroxypropylcellulose) (HPC) 100 % of control | [4] 108 % of control | dose: 200.0 mg/kg/injection, schedule: Q01DX001 (ip), vehicle: Klucel (hydroxypropylcellulose) (HPC) 98 % of control | [5] 108 % of control | dose: 400.0 mg/kg/injection, schedule: Q01DX001 (ip), vehicle: Klucel (hydroxypropylcellulose) (HPC) 86 % of control | [15] 101 % of control

COc1ccc([N+](=O)[O-])cc1NC(=O)NCCCl
inactive: dose: 75.0 mg/kg/injection, schedule: Q01DX009 (ip), vehicle: Klucel (hydroxypropylcellulose) (HPC) 108 % of control | [13] 93 % of control | dose: 150.0 mg/kg/injection, schedule: Q01DX009 (ip), vehicle: Klucel (hydroxypropylcellulose) (HPC) 95 % of control | [14] 96 % of control | dose: 300.0 mg/kg/injection, schedule: Q01DX009 (ip), vehicle: Klucel (hydroxypropylcellulose) (HPC) 102 % of control | [16] 98 % of control

CCCCCCCCCCCCCCCCCC(=O)[O][Hg][c]1ccccc1
inactive: dose: 5.0 mg/kg/injection, schedule: Q01DX001 (ip), vehicle: carboxymethylcellulose (CMC) 94 % of control | dose: 8.0 mg/kg/injection, schedule: Q01DX015 (ip), vehicle: carboxymethylcellulose (CMC) 96 % of control | dose: 10.0 mg/kg/injection, schedule: Q01DX001 (ip), vehicle: carboxymethylcellulose (CMC) 94 % of control | dose: 10.0 mg/kg/injection, schedule: Q01DX009 (ip), vehicle: saline with Tween-80 94 % of control | dose: 16.0 mg/kg/injection, schedule: Q01DX015 (ip), vehicle: carboxymethylcellulose (CMC) 92 % of control | dose: 20.0 mg/kg/injection, schedule: Q01DX001 (ip), vehicle: carboxymethylcellulose (CMC) 92 % of control | dose: 20.0 mg/kg/injection, schedule: Q01DX009 (ip), vehicle: saline with Tween-80 110 % of control | dose: 20.0 mg/kg/injection, schedule: Q04DX003 (ip), vehicle: saline 102 % of control | dose: 32.0 mg/kg/injection, schedule: Q01DX015 (ip), vehicle: carboxymethylcellulose (CMC) 94 % of control | dose: 40.0 mg/kg/injection, schedule: Q01DX001 (ip), vehicle: carboxymethylcellulose (CMC) 100 % of control | dose: 40.0 mg/kg/injection, schedule: Q04DX003 (ip), vehicle: saline 98 % of control

Cc1ncc(CO)c(/C=N/OCc2ccc(OCc3ccccc3)cc2)c1O
inactive: [8] 102 % of control | [11] 100 % of control

CC(C#N)CC12CCCCC1CC/C(=C\c1ccccc1)C2 (stereo not given)
inactive: [13] 92 % of control | [14] 94 % of control | [16] 94 % of control

Cc1nc(NN)ccc1[N+](=O)[O-]
inactive: dose: 100.0 mg/kg/injection, schedule: Q04DX002 (ip), vehicle: Klucel (hydroxypropylcellulose) (HPC) 96 % of control | dose: 200.0 mg/kg/injection, schedule: Q04DX002 (ip), vehicle: Klucel (hydroxypropylcellulose) (HPC) 90 % of control | dose: 400.0 mg/kg/injection, schedule: Q04DX002 (ip), vehicle: Klucel (hydroxypropylcellulose) (HPC) 96 % of control

Cc1c(CCO)sc[n+]1Cc1ccccc1
inactive: dose: 100.0 mg/kg/injection, schedule: Q04DX002 (ip), vehicle: saline 93 % of control | dose: 200.0 mg/kg/injection, schedule: Q04DX002 (ip), vehicle: saline 100 % of control
